The values below come from article PMC6478789, “A chemical toolbox for the study of bromodomains and epigenetic signaling” (Nature Communications, 2019).

Assay in all cases: BROMOscan ligand-binding assay
In assay [1] the target is PBRM1(2) (Homo sapiens, UniProt Q86U86). As to conditions: for Kd: sheet prints no unit (nM).
Source text: (§1) BROMOscan is a binding assay based on the well-known KINOMEscan technology. This assay measures the binding of a DNA-tagged bromodomain to an immobilized BRD ligand. If an inhibitor is present, it will compete with the bromodomain binding to the immobilized ligand, resulting in reduction of a quantitative PCR (qPCR) signal in a dose-dependent manner.
Assay [2] concerns the target T1, BRD1 (Homo sapiens, UniProt O95696).
T1 sequence (O95696 562-666 limits assumed): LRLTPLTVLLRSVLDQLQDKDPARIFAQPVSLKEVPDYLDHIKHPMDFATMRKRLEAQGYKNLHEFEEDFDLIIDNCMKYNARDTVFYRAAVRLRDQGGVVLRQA
Source text: as §1

Assay [3] concerns the target BRD2(2) (Homo sapiens, UniProt P25440).
Source text: as §1
Assay [4] deals with T2, BRPF3 (Homo sapiens, UniProt Q9ULD4).
T2 sequence (Q9ULD4 589-693 limits assumed): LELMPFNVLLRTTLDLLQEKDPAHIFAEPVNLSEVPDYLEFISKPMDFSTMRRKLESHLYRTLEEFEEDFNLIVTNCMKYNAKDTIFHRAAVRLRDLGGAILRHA
As to conditions: for Kd: sheet prints no unit (nM).
Source text: as §1

Assay [5] addresses FALZ (Homo sapiens, UniProt Q12830). As to conditions: for Kd: sheet prints no unit (nM).
Source text: as §1
Assay [6] deals with WDR9(2) (Homo sapiens, UniProt Q9NSI6). As to conditions: for Kd: sheet prints no unit (nM).
Source text: as §1
Assay [7] has as its target T3, ATAD2A (Homo sapiens, UniProt Q6PL18).
T3 sequence (Q6PL18 980-1092 limits assumed): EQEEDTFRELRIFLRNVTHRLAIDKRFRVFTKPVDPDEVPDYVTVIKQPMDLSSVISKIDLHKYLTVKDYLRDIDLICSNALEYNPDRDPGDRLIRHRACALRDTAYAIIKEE
As to conditions: for Kd: sheet prints no unit (nM).
Source text: as §1

Assay [8] addresses T4, BAZ2B (Homo sapiens, UniProt Q9UIF8).
T4 sequence (Q9UIF8 2060-2164 limits assumed): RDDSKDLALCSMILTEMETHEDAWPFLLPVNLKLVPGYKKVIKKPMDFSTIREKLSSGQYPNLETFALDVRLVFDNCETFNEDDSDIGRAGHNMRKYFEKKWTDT
As to conditions: for Kd: sheet prints no unit (nM).
Source text: as §1

In assay [9] the target is T5, BRPF1 (Homo sapiens, UniProt P55201).
T5 sequence (P55201 628-732 limits assumed): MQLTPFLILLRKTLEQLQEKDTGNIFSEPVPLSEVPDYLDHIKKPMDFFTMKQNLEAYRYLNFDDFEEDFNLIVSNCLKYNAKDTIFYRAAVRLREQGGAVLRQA
Source text: as §1

The target in assay [10] is BRD4(1) (Homo sapiens, UniProt O60885).
Source text: as §1
In assay [11] the target is BRD3(1) (Homo sapiens, UniProt Q15059).
Source text: as §1
Assay [12] has as its target BRD4(1,2) (Homo sapiens, UniProt O60885).
Source text: as §1
Assay [13] has as its target T6, GCN5L2 (Homo sapiens, UniProt Q92830).
T6 sequence (Q92830 728-832 limits assumed): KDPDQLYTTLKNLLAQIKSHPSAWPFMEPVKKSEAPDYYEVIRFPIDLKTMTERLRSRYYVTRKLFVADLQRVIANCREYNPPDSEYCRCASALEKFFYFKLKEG
As to conditions: for Kd: KD (BROMOscan), sheet prints no unit (nM).
Source text: as §1

Assay [14] concerns the target CECR2 (Homo sapiens, UniProt Q9BXF3). As to conditions: for Kd: sheet prints no unit (nM).
Source text: as §1
Assay [15] deals with BRD8(1) (Homo sapiens, UniProt Q9H0E9). As to conditions: for Kd: sheet prints no unit (nM).
Source text: as §1
Assay [16] addresses PBRM1(5) (Homo sapiens, UniProt Q86U86).
Source text: as §1
The mark [17] stands for this setting: KD (BROMOscan), sheet prints no unit (nM).

Structures are written as SMILES. pKd: −log10 of the molar value. Where two headings read alike, the source gives them in different places.

Chain of PBRM1(2) (Q86U86 177-287 limits assumed): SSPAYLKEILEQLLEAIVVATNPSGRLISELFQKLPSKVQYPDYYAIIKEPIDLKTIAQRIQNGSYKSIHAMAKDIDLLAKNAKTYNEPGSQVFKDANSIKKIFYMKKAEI
Chain of BRD8(1) (Q9H0E9 706-811 limits assumed): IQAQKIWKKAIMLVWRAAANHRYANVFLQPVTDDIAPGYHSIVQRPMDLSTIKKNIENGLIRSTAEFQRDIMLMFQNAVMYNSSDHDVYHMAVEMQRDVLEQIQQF
Chain of CECR2 (Q9BXF3 434-538 limits assumed): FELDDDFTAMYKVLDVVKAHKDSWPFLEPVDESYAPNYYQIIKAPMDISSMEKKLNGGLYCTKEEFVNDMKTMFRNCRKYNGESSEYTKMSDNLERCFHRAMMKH
Chain of BRD3(1) (Q15059 34-140 limits assumed): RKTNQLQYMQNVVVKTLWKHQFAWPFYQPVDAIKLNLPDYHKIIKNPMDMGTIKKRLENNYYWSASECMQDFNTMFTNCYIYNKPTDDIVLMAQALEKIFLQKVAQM
Chain of PBRM1(5) (Q86U86 653-763 limits assumed): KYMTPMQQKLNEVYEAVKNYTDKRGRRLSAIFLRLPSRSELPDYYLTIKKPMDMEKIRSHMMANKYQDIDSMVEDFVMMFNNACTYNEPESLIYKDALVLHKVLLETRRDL
Chain of BRD2(2) (P25440 344-453 limits assumed): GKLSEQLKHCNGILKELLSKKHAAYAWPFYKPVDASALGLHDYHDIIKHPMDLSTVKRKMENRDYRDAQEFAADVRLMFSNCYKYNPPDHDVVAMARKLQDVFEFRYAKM
Chain of WDR9(2) (Q9NSI6 1313-1418 limits assumed): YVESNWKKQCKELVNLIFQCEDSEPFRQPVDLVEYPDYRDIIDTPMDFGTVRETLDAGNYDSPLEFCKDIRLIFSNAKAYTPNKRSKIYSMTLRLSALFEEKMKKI

As a reminder, the pKd is the negative decadic logarithm of the Kd, by convention in mol/L. Read a low pKd as a high Kd. In general, Kd refers to the free concentration of one partner at which half of the binding sites on the other are occupied at equilibrium, for simple one-to-one binding. Turning to `Cc1noc(C)c1-c1ccc2c(c1)nc(CCc1ccccc1)n2CCN1CCOCC1` [CBP30-298], the pKd in assay [1] (BROMOscan Gene Symbol PBRM1(2)) is 4.38; in assay [2] (BROMOscan Gene Symbol BRD1) it was 4.34; in assay [3] (BROMOscan Gene Symbol BRD2(2)) it was 5.74; in assay [4] (BROMOscan Gene Symbol BRPF3), under 4.30; in assay [5] (BROMOscan Gene Symbol FALZ), under 4.30; in assay [6] (BROMOscan Gene Symbol WDR9(2)), 4.52. In addition, the negative logarithm of the Kd (pKd) is under 3.82 in [7] (BROMOscan Gene Symbol ATAD2A); under 4.30 in assay [8] (BROMOscan Gene Symbol BAZ2B); 4.74 in assay [9] (BROMOscan Gene Symbol BRPF1); 6.28 in assay [10] (BROMOscan Gene Symbol BRD4(1)); 6.02 in assay [11] (BROMOscan Gene Symbol BRD3(1)). The Kd in assay [4] (read-out: KD (BROMOscan)), in assay [5] (read-out: KD (BROMOscan)), in assay [7] (read-out: KD (BROMOscan)) and in [8] (read-out: KD (BROMOscan)) was over 30000 nM throughout.

For the compound `CCCOc1ccn2c(C(C)=O)cc(-c3ccccc3S(C)(=O)=O)c2c1` [GSK2801], the pKd in assay [12] is 4.19; in assay [1] (KD, BROMOscan Gene Symbol PBRM1(2)), under 4.00; in assay [2] it was 4.22; in assay [3] it was 4.66; in assay [4] (KD, BROMOscan Gene Symbol BRPF3), 4.82; in [5] (KD, BROMOscan Gene Symbol FALZ), 4.02. For the same compound, the pKd is under 4.00 in assay [6] (KD, BROMOscan Gene Symbol WDR9(2)); under 4.00 in [7] (KD, BROMOscan Gene Symbol ATAD2A); 4.85 in [9] (KD, BROMOscan Gene Symbol BRPF1); under 4.00 in assay [13] (KD, BROMOscan Gene Symbol GCN5L2); 4.13 in assay [10]; 5.05 in assay [14] (KD, BROMOscan Gene Symbol CECR2). Also, the pKd in assay [15] (KD, BROMOscan Gene Symbol BRD8(1)) is under 4.00; in assay [16] (KD, BROMOscan Gene Symbol PBRM1(5)), under 4.00; in [11] (KD, BROMOscan Gene Symbol BRD3(1)), 4.47. Further, the Kd in [1] (KD (BROMOscan)), in [6] (KD (BROMOscan)), in assay [7] (KD (BROMOscan)), in [13], in assay [15] (KD (BROMOscan)) and in assay [16] (setting [17]) was over 30000 nM throughout.

For the compound `Cc1cc(=O)n(C)c2cc(N3C(=O)CC[C@H](NS(=O)(=O)CC(C)C)[C@H]3c3ccc(Cl)cc3)ccc12` [LP-99], the pKd in [12] (BROMOscan, BRD4(1,2)) is 4.39; in assay [1] (BROMOscan, PBRM1(2)), under 4.30; in assay [2] (BRD1) it was 4.66; in [3] (BROMOscan, BRD2(2)) it was 5.04; in assay [4] (BROMOscan, BRPF3), under 4.30; in [5] (BROMOscan, FALZ), under 4.30. The pKd in [6] (BROMOscan, WDR9(2)) is under 4.30; in assay [7] (ATAD2A), under 4.30; in assay [8] (BAZ2B) it was under 4.30; in [9] (BROMOscan, BRPF1) it was 4.37; in assay [13] (BROMOscan, GCN5L2), under 4.30; in assay [10] (BROMOscan, BRD4(1)), 4.34. Moreover, the pKd in assay [14] (BROMOscan, CECR2) was under 4.30; in [15] (BROMOscan, BRD8(1)), under 4.30; in assay [16] (BROMOscan, PBRM1(5)), under 4.30; in [11] (BROMOscan, BRD3(1)), 4.36.

For `COc1cc(C#N)ccc1S(=O)(=O)Nc1ccc2c(c1)cc(C)c(=O)n2C` [NI 57], the pKd in assay [12] (BRD4(1,2)) is 4.82; in assay [1] (PBRM1(2)), under 4.30; in [2] (BRD1), 7.34; in assay [3] (BRD2(2)), under 4.30; in [5] (FALZ), 5.64; in assay [6] (WDR9(2)) it was under 4.30. The pKd in assay [7] (ATAD2A) is under 4.30; in assay [8] (BAZ2B), 5.03; in [9] (BRPF1), 8.40; in [13] (GCN5L2), 5.39; in assay [10] (BRD4(1)), 5.48; in assay [14] (CECR2) it was 4.92. In addition, the pKd was under 4.30 in [15] (BRD8(1)), 4.96 in assay [16] (PBRM1(5)) and 5.14 in assay [11] (BRD3(1)).

As for `CCCS(=O)(=O)c1nc(NC2CC2)cc(-c2ccc3c(ccn3C3CC(C)(C)NC(C)(C)C3)c2)n1` [NVS-CECR2-1], the pKd was 4.92 in assay [12]; under 4.52 in assay [1]; under 4.52 in [2]; under 4.52 in [3]; under 4.52 in assay [4]; 6.44 in [5]. For the same compound, the pKd in assay [6] is 4.52; in [7], under 4.52; in [8], under 4.52; in assay [9] it was 5.46; in assay [13] it was under 4.52; in assay [10], 4.68. The pKd is 7.85 in [14], under 4.52 in [15], under 4.52 in assay [16] and under 4.52 in assay [11].

Turning to `COc1cc2c(cc1NS(=O)(=O)c1ccc(Br)cc1C)n(C)c(=O)n2C` [OF-1], the pKd in [1] (PBRM1(2)) is under 4.30; in [2] (BRD1), 6.44; in assay [3] (BRD2(2)), 5.00; in assay [5] (FALZ) it was 5.80; in [6] (WDR9(2)), under 4.30; in assay [7] (ATAD2A), under 4.30. Moreover, the pKd in assay [8] (BAZ2B) is 5.60; in assay [13] (GCN5L2), 5.16; in [14] (CECR2), under 4.30; in assay [15] (BRD8(1)), under 4.30; in assay [16] (PBRM1(5)) it was 5.35; in assay [11] (BRD3(1)) it was 5.26. Moreover, the Kd in assay [1] (read-out: KD (BROMOscan)), in [6] (read-out: KD (BROMOscan)), in assay [14] (read-out: KD (BROMOscan)) and in [15] (read-out: KD (BROMOscan)) was over 30000 nM each time.

As to `O=C(C=CN1[C@H]2CC[C@@H]1c1ncnc(NC3CC3)c1C2)c1ccccc1O` [PFI-3 D1], the pKd in assay [12] (BROMOscan, BRD4(1,2)) was under 4.52; in assay [1] (BROMOscan, PBRM1(2)), 6.77; in [2] (BROMOscan, BRD1), under 4.52; in assay [3] (BROMOscan, BRD2(2)), under 4.52; in assay [4] (BROMOscan, BRPF3) it was under 4.52; in [5] (BROMOscan, FALZ), under 4.52. Moreover, the pKd in [6] (BROMOscan, WDR9(2)) is under 4.52; in assay [7] (BROMOscan, ATAD2A), under 4.52; in assay [8] (BROMOscan, BAZ2B), under 4.52; in assay [9] (BROMOscan, BRPF1), under 4.52; in [13] (BROMOscan, GCN5L2), 4.64; in [10] (BROMOscan, BRD4(1)), 4.57. Also, the pKd in assay [14] (BROMOscan, CECR2) was under 4.52; in assay [15] (BROMOscan, BRD8(1)), under 4.52; in assay [16] (BROMOscan, PBRM1(5)) it was 7.44; in [11] (BROMOscan, BRD3(1)), under 4.52.

As to `O=C(C=CN1CC2CC1CN2c1ccccn1)c1ccccc1O` (centres unmarked) [PFI-3], the Kd in [4] (KD (BROMOscan)), in assay [5] (KD (BROMOscan)), in assay [6] (KD (BROMOscan)), in [7] (KD (BROMOscan)), in [8] (KD (BROMOscan)) and in [9] (setting [17]) was over 30000 nM throughout. Further, the Kd in [13], in [14] (KD (BROMOscan)), in [15] (KD (BROMOscan)) and in assay [11] (setting [17]) was over 30000 nM each time. Moreover, the pKd in assay [4] (KD, BRPF3) is under 4.00; in [5] (KD, FALZ), under 4.00; in assay [6] (KD, WDR9(2)) it was under 4.00; in assay [7] (KD, ATAD2A), under 4.00; in assay [8] (KD, BAZ2B) it was under 4.00; in assay [9] (KD, BRPF1), under 4.00. The pKd in [13] (KD, GCN5L2) is under 4.00; in assay [14] (KD, CECR2) it was under 4.00; in assay [15] (KD, BRD8(1)) it was under 4.00; in assay [11] (KD, BRD3(1)) it was under 4.00.

With `O=C(O)c1ccccc1O` [Salicylic Acid], the pKd in assay [12] is under 1.85; in [1] (KD, PBRM1(2)), 3.00; in assay [2] it was under 1.85; in assay [3] it was under 1.85; in [4] (KD, BRPF3), under 1.85; in [5] (KD, FALZ), under 1.85. The pKd is under 1.85 in assay [6] (KD, WDR9(2)); under 1.85 in assay [8] (KD, BAZ2B); 2.38 in assay [9] (KD, BRPF1); under 1.85 in assay [13] (KD, GCN5L2); under 1.85 in assay [10]; under 1.85 in assay [14] (KD, CECR2). For the same compound, the pKd in assay [15] (KD, BRD8(1)) was under 1.85; in assay [16] (KD, PBRM1(5)) it was 3.80.
